Test results taken from ChEMBL document CHEMBL4402590, “Small-Molecule Antagonist Targeting Exportin-1 via Rational Structure-Based Discovery” (J Med Chem, 2020).
Calls of active or inactive are those of the source. No cut-off for these calls is given here.

Legend:
[1] = target: Exportin-1 (Homo sapiens, UniProt O14980); assay: Inhibition of nuclear CRM1 (unknown origin) by cell based assay
[2] = test system: Mus musculus; assay: Anti-inflammatory activity against DSS-induced ulcerative colitis C57BL/6J mouse model assessed as re-epithelialization of colon at 3 and 30 mg/kg, po administered for 7 days and measured on day 7 by […] and eosin staining based microscopic analysis; type: functional, organism-based
[3] = test system: Mus musculus; assay: Anti-inflammatory activity against DSS-induced ulcerative colitis C57BL/6J mouse model assessed as reduction in colon ulceration at 3 and 30 mg/kg, po administered for 7 days and measured on day 7 by […] and eosin staining based microscopic analysis; type: functional, organism-based
[4] = test system: Mus musculus; assay: Anti-inflammatory activity against DSS-induced ulcerative colitis C57BL/6J mouse model assessed as preservation of colon mucosal architecture at 3 and 30 mg/kg, po administered for 7 days and measured on day 7 by […] and eosin staining based microscopic analysis; type: functional, organism-based
[5] = test system: Mus musculus; assay: Anti-inflammatory activity against DSS-induced ulcerative colitis C57BL/6J mouse model assessed as reduction in colon inflammation at 3 and 30 mg/kg, po administered for 7 days and measured on day 7 by […] and eosin staining based microscopic analysis; type: functional, organism-based
[6] = test system: Mus musculus; assay: Anti-inflammatory activity against DSS-induced ulcerative colitis C57BL/6J mouse model assessed as reduction in colon swelling at 3 and 30 mg/kg, po administered for 7 days and measured on day 7 by […] and eosin staining based microscopic analysis; type: functional, organism-based

Chain of Exportin-1 (O14980 whole entry): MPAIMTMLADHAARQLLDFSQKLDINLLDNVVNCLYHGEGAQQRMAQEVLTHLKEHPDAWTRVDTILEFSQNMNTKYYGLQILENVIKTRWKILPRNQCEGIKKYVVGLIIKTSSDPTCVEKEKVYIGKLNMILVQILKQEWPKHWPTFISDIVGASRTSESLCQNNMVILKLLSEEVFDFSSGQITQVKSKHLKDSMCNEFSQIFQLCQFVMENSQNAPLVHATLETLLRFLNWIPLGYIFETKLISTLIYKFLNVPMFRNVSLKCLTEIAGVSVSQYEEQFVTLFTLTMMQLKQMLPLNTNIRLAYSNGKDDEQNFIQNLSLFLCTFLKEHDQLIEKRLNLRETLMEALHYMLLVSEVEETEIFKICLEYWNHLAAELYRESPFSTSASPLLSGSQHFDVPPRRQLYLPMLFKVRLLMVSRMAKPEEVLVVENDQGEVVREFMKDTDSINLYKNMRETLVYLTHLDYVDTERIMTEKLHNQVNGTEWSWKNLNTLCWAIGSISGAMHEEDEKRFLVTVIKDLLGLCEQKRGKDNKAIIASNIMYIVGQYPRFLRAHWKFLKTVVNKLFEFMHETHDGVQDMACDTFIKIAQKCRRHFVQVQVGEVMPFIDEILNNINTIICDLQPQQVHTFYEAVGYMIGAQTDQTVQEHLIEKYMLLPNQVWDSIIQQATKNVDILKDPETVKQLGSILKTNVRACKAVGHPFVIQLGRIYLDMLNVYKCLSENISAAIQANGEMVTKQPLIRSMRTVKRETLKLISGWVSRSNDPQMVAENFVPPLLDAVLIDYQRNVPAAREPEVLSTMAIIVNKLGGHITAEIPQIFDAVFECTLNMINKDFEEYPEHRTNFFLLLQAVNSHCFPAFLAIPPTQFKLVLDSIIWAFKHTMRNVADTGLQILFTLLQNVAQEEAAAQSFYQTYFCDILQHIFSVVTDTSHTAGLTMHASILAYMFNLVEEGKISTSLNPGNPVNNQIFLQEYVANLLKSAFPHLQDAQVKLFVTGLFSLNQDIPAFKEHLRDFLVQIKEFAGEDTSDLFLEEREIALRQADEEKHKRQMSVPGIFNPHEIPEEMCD

SMILES	IC50 [1] [µM]	Activity [2]	Activity [3]	Activity [4]	Activity [5]	Activity [6]
[O-][S+](/C=C/CCN=C=S)c1ccccc1 (stereo unspecified)	1.5	–	–	–	–	–
Nc1ccc(O)c(C(=O)O)c1	–	inactive	inactive	inactive	inactive	inactive
